Measurements published in ChEMBL document CHEMBL3879908, “Pyrrolidinone carboxamide derivatives” (2014).

Biological target: T1, Chemerin-like receptor 1 (Homo sapiens, UniProt Q99788)
T1 sequence (Q99788 whole entry): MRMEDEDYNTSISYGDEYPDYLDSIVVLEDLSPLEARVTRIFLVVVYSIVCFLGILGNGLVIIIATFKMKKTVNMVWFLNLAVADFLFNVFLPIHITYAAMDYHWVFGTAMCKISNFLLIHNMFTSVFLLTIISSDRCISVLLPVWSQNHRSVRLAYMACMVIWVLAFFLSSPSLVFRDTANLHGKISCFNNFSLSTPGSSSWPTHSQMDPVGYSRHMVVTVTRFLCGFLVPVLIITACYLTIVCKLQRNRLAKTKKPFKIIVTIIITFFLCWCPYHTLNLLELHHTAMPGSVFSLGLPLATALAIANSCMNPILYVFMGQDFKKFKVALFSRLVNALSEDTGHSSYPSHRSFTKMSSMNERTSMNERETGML
Assay: Displacement of [125I]-chemerin from ChemR23 (unknown origin) transfected in mouse BaF3 cells after 3 hrs by scintillation counting method
Type: cell-based

SMILES	IC50 [nM]
Cc1cccc(C)c1N1C[C@]2(C(=O)Nc3cc(C(F)(F)F)cc(C(F)(F)F)c3)CC[C@@H]2C1=O	≤ 30
Cc1cccc(C)c1N1CC(C(=O)Nc2cc(C#N)cc(C(F)(F)F)c2)CC1=O (configuration not stated)	30 to 300
Cc1cccc(C)c1N1C[C@]2(C(=O)Nc3cc(C(F)(F)F)cc(C(F)(F)F)c3)CC=CC[C@@H]2C1=O	300 to 6000
CCc1cccc(C)c1N1CC(C(=O)Nc2cc(C(F)(F)F)cc(C(F)(F)F)c2)CC1=O (configuration not stated)	≤ 30
Cc1cccc(C)c1N1CC(C(=O)Nc2cccc(C#N)c2)CC1=O (configuration not stated)	300 to 6000
Cc1cccc(C)c1N1CC(C(=O)Nc2cc(C(F)(F)F)cc(C(F)(F)F)c2)(N(C)C)CC1=O (configuration not stated)	≤ 30
Cc1cccc(C)c1N1CC(C(=O)Nc2ccc(Cl)c(C(F)(F)F)c2)CC1=O (configuration not stated)	300 to 6000
Cc1cccc(C)c1N1CC(C(=O)Nc2cc(N3CCOCC3)cc(C(F)(F)F)c2)CC1=O (configuration not stated)	30 to 300
COc1cccc(C)c1N1CC(C(=O)Nc2cc(F)cc(F)c2)CC1=O (configuration not stated)	30 to 300
Cc1cccc(C)c1N1CC2(C(=O)Nc3cc(C(F)(F)F)cc(C(F)(F)F)c3)COCCC2C1=O (configuration not stated)	300 to 6000
Cc1cccc(C)c1N1CC2(C(=O)Nc3cc(C(F)(F)F)cc(C(F)(F)F)c3)CC2C1=O (configuration not stated)	300 to 6000
Cc1cccc(C)c1N1CC(C(=O)Nc2cc(N3CCCCC3)cc(C(F)(F)F)c2)CC1=O (configuration not stated)	30 to 300
COC(=O)c1cc(NC(=O)C2CC(=O)N(c3c(C)cccc3C)C2)cc(C(F)(F)F)c1 (configuration not stated)	30 to 300
Cc1cccc(C)c1N1CC(C(=O)Nc2cc(C3CC3)cc(C(F)(F)F)c2)CC1=O (configuration not stated)	300 to 6000
Cc1cccc(C)c1N1CC2(C(=O)Nc3cc(C(F)(F)F)cc(C(F)(F)F)c3)COCC2C1=O (configuration not stated)	30 to 300
CO[C@H]1CC2C(=O)N(c3c(C)cccc3C)CC2(C(=O)Nc2cc(C(F)(F)F)cc(C(F)(F)F)c2)C1 (some centres not stated)	≤ 30
Cc1cccc(Cl)c1N1CC(C(=O)Nc2cc(C(F)(F)F)cc(C(F)(F)F)c2)CC1=O (configuration not stated)	30 to 300
Cc1cc(F)cc(C)c1N1CC(C(=O)Nc2cc(C(F)(F)F)cc(C(F)(F)F)c2)CC1=O (configuration not stated)	30 to 300
Cc1cccc(C)c1N1CC2(C(=O)Nc3cc(C(F)(F)F)cc(C(F)(F)F)c3)CCCC2C1=O (configuration not stated)	≤ 30
Cc1cccc(C)c1N1CC2(C(=O)Nc3cc(C(F)(F)F)cc(C(F)(F)F)c3)C[C@@H](F)CC2C1=O (some centres not stated)	30 to 300
Cc1ccc(C)c(N2CC(C(=O)Nc3cc(C(F)(F)F)cc(C(F)(F)F)c3)CC2=O)c1 (configuration not stated)	30 to 300
CCc1cccc(C)c1N1CC(C(=O)Nc2ccc(C(F)(F)F)cc2)CC1=O (configuration not stated)	300 to 6000
Cc1cccc(C)c1N1CC(C(=O)Nc2cc(Cl)cc(C(F)(F)F)c2)CC1=O (configuration not stated)	30 to 300

SMILES	IC50 [nM]
CCc1cccc(C)c1N1CC(C(=O)Nc2ccc(OC)c(C(F)(F)F)c2)CC1=O (configuration not stated)	300 to 6000
O=C(Nc1cc(C(F)(F)F)cc(C(F)(F)F)c1)C1CC(=O)N(c2ccccc2)C1 (configuration not stated)	300 to 6000
Cc1ccc(N2CC(C(=O)Nc3cc(C(F)(F)F)cc(C(F)(F)F)c3)CC2=O)c(C)c1 (configuration not stated)	30 to 300
Cc1cccc(C)c1N1CC(C(=O)Nc2cc(C(F)(F)F)cc(C(F)(F)F)c2)CC1=O (configuration not stated)	≤ 30
CNC1(C(=O)Nc2cc(C(F)(F)F)cc(C(F)(F)F)c2)CC(=O)N(c2c(C)cccc2C)C1 (configuration not stated)	≤ 30
CCc1cccc(C)c1N1CC(C(=O)Nc2ccc(C)c(C(F)(F)F)c2)CC1=O (configuration not stated)	300 to 6000
Cc1cccc(C)c1N1CC(C(=O)Nc2cc(F)cc(F)c2)CC1=O (configuration not stated)	300 to 6000
Cc1cccc(C)c1N1CC(NC(C)C)(C(=O)Nc2cc(C(F)(F)F)cc(C(F)(F)F)c2)CC1=O (configuration not stated)	≤ 30
Cc1cccc(C)c1N1CC(C(=O)Nc2cc(Cl)cc(C#N)c2)CC1=O (configuration not stated)	300 to 6000
Cc1cccc(C)c1N1CC(C(=O)Nc2cccc(Cl)c2)CC1=O (configuration not stated)	300 to 6000
Cc1cccc(S(C)(=O)=O)c1N1CC(C(=O)Nc2cc(C(F)(F)F)cc(C(F)(F)F)c2)CC1=O (configuration not stated)	300 to 6000
CCc1cccc(C)c1N1CC(C(=O)Nc2cccc(Cl)c2)CC1=O (configuration not stated)	300 to 6000
Cc1cccc(C)c1N1C[C@]2(C(=O)Nc3cc(C(F)(F)F)cc(C(F)(F)F)c3)OCC[C@@H]2C1=O	30 to 300
Cc1ccccc1N1CC(C(=O)Nc2cc(C(F)(F)F)cc(C(F)(F)F)c2)CC1=O (configuration not stated)	30 to 300
Cc1cccc(C)c1N1C[C@@](C)(C(=O)Nc2cc(Cl)cc(Cl)c2)[C@H](C)C1=O	≤ 30
Cc1cccc(C)c1N1CC2(C(=O)Nc3cc(C(F)(F)F)cc(C(F)(F)F)c3)CC=CCC2C1=O (configuration not stated)	≤ 30
Cc1cccc(Br)c1N1CC(C(=O)Nc2cccc(C(F)(F)F)c2)CC1=O (configuration not stated)	300 to 6000
Cc1cccc(C)c1N1CC(C(=O)Nc2cccc(C(F)(F)F)c2)CC1=O (configuration not stated)	300 to 6000
CC[C@@]1(C(=O)Nc2ccc(C)c(C(F)(F)F)c2)CN(c2c(C)cccc2C)C(=O)[C@H]1C	30 to 300
Cc1cccc(C)c1N1CC(C(=O)Nc2cc(N3CCCC3)cc(C(F)(F)F)c2)CC1=O (configuration not stated)	30 to 300
CCc1cccc(C)c1N1CC(C(=O)Nc2ccc(F)c(C(F)(F)F)c2)CC1=O (configuration not stated)	300 to 6000
Cc1cccc(C)c1N1C[C@]2(C(=O)Nc3cc(C(F)(F)F)cc(C(F)(F)F)c3)CCO[C@@H]2C1=O	≤ 30
Cc1cccc(C)c1N1CC(C(=O)Nc2cc(Cl)cc(Cl)c2)CC1=O (configuration not stated)	30 to 300

SMILES	IC50 [nM]
CCc1cccc(C)c1N1CC(C(=O)Nc2cccc(C(F)(F)F)c2)CC1=O (configuration not stated)	300 to 6000
CC(C)c1ccccc1N1CC(C(=O)Nc2cc(C(F)(F)F)cc(C(F)(F)F)c2)CC1=O (configuration not stated)	30 to 300
CCc1cccc(NC(=O)C2CC(=O)N(c3c(C)cccc3C)C2)c1 (configuration not stated)	300 to 6000
Cc1cccc(C)c1N1CC2(C(=O)Nc3cc(C(F)(F)F)cc(C(F)(F)F)c3)CCCCC2C1=O (configuration not stated)	30 to 300
Cc1cccc(F)c1N1CC(C(=O)Nc2cccc(Cl)c2)CC1=O (configuration not stated)	300 to 6000
Cc1cccc(C)c1N1CC2(C(=O)Nc3cc(C(F)(F)F)cc(C(F)(F)F)c3)CC(N3CCCC3)CC2C1=O (configuration not stated)	30 to 300
Cc1cccc(C2CC2)c1N1CC(C(=O)Nc2cc(C(F)(F)F)cc(C(F)(F)F)c2)CC1=O (configuration not stated)	≤ 30
CC[C@@]1(C(=O)Nc2cc(Cl)cc(C#N)c2)CN(c2c(C)cccc2C)C(=O)[C@H]1C	30 to 300
CCc1ccccc1N1CC(C(=O)Nc2cc(C(F)(F)F)cc(C(F)(F)F)c2)CC1=O (configuration not stated)	30 to 300
CO[C@@H]1CC2C(=O)N(c3c(C)cccc3C)CC2(C(=O)Nc2cc(C(F)(F)F)cc(C(F)(F)F)c2)C1 (some centres not stated)	≤ 30
Cc1cccc(C)c1N1CC2(C(=O)Nc3cc(C(F)(F)F)cc(C(F)(F)F)c3)COC=CC2C1=O (configuration not stated)	≤ 30
Cc1cccc(C)c1N1CC(C(=O)Nc2ccc(Cl)c(Cl)c2)CC1=O (configuration not stated)	300 to 6000
Cc1cccc(C)c1N1CC(C(=O)Nc2cc(C(F)(F)F)cc(C(F)(F)F)c2)(N2CCOCC2)CC1=O (configuration not stated)	≤ 30
COc1cc(NC(=O)C2CC(=O)N(c3c(C)cccc3C)C2)cc(C(F)(F)F)c1 (configuration not stated)	30 to 300
Cc1ccccc1N1CC(C(=O)Nc2cccc(C(F)(F)F)c2)CC1=O (configuration not stated)	300 to 6000
Cc1cccc(C)c1N1CC2(C(=O)Nc3cc(C(F)(F)F)cc(C(F)(F)F)c3)C[C@H](F)CC2C1=O (some centres not stated)	≤ 30
Cc1cccc(C)c1N1CC(C(=O)Nc2ccc(Cl)cc2Cl)CC1=O (configuration not stated)	300 to 6000
Cc1cccc(C)c1N1CC(C(=O)Nc2cc(C(F)(F)F)cc(C(F)(F)F)c2)(N2CCCC2)CC1=O (configuration not stated)	≤ 30
Cc1cccc(C)c1N1CC2(C(=O)Nc3cc(C(F)(F)F)cc(C(F)(F)F)c3)CC(O)CC2C1=O (configuration not stated)	30 to 300
Cc1cccc(C)c1N1CC2(C(=O)Nc3cc(C(F)(F)F)cc(C(F)(F)F)c3)CC(F)(F)CC2C1=O (configuration not stated)	≤ 30
Cc1cccc(N2CC(C(=O)Nc3cc(C(F)(F)F)cc(C(F)(F)F)c3)CC2=O)c1C (configuration not stated)	30 to 300
